Laboratory results as given in patent publication US8299073B2, “P38 MAP kinase inhibitors” (Respivert Ltd., priority 2008, dated 2012).
pEC50, pIC50: −log10 of the molar value.

Experiments:
[1] = system: LPS-induced TNFα release in THP-1 cells; experiment: LPS-induced TNF alpha release in THP-1 cells; type: cell-based; conditions: Homo sapiens, THP-1; LPS-induced TNFα release; read-out: IC50 values THP-1 cells
Description: THP-1, human monocytic cell line, was also used for this assay. THP-1 cells were stimulated with 1 μg/ml of LPS (from E. coli: O111:B4, Sigma) for 4 hrs, and the supernatant collected for determination of TNFα concentration.
THP-1 cells, a human monocytic cell line, were stimulated with 1 μg/ml of LPS (from E. coli; O111:B4, Sigma) for 4 hr and the supernatant collected for determination of TNFα concentration by sandwich ELISA (Duo-set, R&D systems). The inhibition of TNFα production was calculated at each concentration by comparison with vehicle control.

[2] = target: T1, p38 MAPK alpha (MAPK14: Invitrogen) (Homo sapiens, UniProt Q16539); experiment: Enzyme inhibition assay (FRET, Z-LYTE), p38 MAPK alpha, via activation of MAPKAP-K2; type: biochemical; conditions: read-out: IC50 values p38α enzyme
T1 construct: purchased Invitrogen
T1 sequence (Q16539 whole entry): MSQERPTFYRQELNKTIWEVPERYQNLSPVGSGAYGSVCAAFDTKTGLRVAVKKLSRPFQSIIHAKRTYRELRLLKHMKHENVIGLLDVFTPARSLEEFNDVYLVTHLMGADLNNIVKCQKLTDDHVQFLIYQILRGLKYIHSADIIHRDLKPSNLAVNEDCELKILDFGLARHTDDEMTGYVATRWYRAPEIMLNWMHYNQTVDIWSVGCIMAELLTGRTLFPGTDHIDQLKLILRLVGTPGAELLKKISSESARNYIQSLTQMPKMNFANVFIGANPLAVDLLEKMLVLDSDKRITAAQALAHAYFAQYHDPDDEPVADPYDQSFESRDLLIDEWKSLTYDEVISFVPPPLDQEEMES

[3] = target: T2, recombinant, phosphorylated p38 MAPK gamma (MAPK12:Millipore) (Homo sapiens, UniProt P53778); experiment: Enzyme inhibition assay (FRET, Z-LYTE), p38 MAPK gamma; type: biochemical; conditions: read-out: IC50 values P38γ enzyme
T2 construct: purchased Millipore
T2 sequence (P53778 1-367): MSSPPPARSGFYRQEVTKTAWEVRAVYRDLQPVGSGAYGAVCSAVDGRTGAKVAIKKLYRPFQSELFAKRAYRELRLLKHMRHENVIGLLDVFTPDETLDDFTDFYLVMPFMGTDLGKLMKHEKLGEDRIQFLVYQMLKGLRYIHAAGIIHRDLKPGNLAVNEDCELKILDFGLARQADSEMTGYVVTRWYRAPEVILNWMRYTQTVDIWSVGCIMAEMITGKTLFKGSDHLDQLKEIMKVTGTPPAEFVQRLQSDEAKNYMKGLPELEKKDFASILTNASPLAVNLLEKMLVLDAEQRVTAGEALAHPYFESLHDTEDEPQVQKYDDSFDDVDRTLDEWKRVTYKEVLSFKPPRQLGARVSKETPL
Description: The enzyme inhibitory activity of compound was determined by fluorescence resonance energy transfer (FRET) using synthetic peptides labelled with both donor and acceptor fluorophores (Z-LYTE, Invitrogen). Briefly, recombinant, phosphorylated p38 MAPK gamma (MAPK12:Millipore) was diluted in HEPES buffer, mixed with compound at desired final concentrations and incubated for two hours at room temperature. The FRET peptide (2 μM) and ATP (100 uM) were next added to the enzyme/compound mixture and incubated for one hour. Development reagent (protease) was added for one hour prior to detection in a fluorescence microplate reader. The site-specific protease only cleaves non-phosphorylated peptide and eliminates the FRET signal. Phosphorylation levels of each reaction were calculated using the ratio of coumarin emission (donor) over fluorescein emission (acceptor) with high ratios indicating high phosphorylation and low ratios, low phosphorylation levels.

[4] = system: LPS-induced TNFα release in differentiated U937 cells; experiment: LPS-induced TNF alpha release in differentiated U937 cells; type: cell-based; conditions: Homo sapiens; read-out: R-EC50 values d-U937 cells
Description: U937 cells, human monocytic cell line, were differentiated to macrophage-type cells by incubation with phorbol myristate acetate (PMA; 100 ng/ml) for 48 to 72 hours. Where appropriate, cells were pre-incubated with final concentrations of compound for 2 hrs. Cells were then stimulated with 0.1 μg/mL of LPS (from E. coli: O111:B4, Sigma) for 4 hrs, and the supernatant collected for determination of TNFα concentration by sandwich ELISA (Duo-set, R&D systems).

[5] = system: Differentiated U937 cells; experiment: MTT assay (loss of cell viability); type: cell-based, human; conditions: loss of cell viability, 10 ug/ml
Description: Differentiated U937 cells were pre-incubated with compound for 4 hrs in 5% FCS or 10% FCS for 24 hrs and 72 hr. The supernatant was replaced with 200 ul of new media and 10 μL of MTT stock solution (5 mg/mL) added to each well. After 1 hr incubation, the media were removed, 200 μL of DMSO added to each well and the plates were shaken lightly for 1 hr prior to reading the absorbance at 550 nm.
The percentage loss of cell viability was calculated for each well relative to vehicle (0.5% DMSO)-treatment. Consequently an apparent increase in cell viability for drug treatment relative to vehicle is tabulated as a negative percentage.

[6] = system: ovalbumin-mediated lung function changes (sGaw); experiment: Ovalbumin challenge/parainfluenza infection model; type: in vivo, Dunkin-Hartley guinea-pigs; conditions: nebulised, 1.5 mg per day; sensitized animals treated with PIV3 medium
[7] = system: neutrophil and macrophage accumulation into airways; experiment: Cigarette smoke model; type: in vivo, A/J mice; conditions: 50 μg/ml (35 μl, bid, in); cigarette smoke exposed mice
Description: A/J mice (males, 5 weeks old) were exposed to cigarette smoke (4% cigarette smoke, diluted with compressed air) for 30 min/day for 11 days using a Tobacco Smoke Inhalation Experiment System for small animals (Model SIS-CS; Sibata Scientific Technology, Tokyo, Japan). Test substances were given intra-nasally (35 μl of solution in 50% DMSO/PBS) and therapeutically twice daily for 3 days after the final cigarette smoke exposure. Twelve hours after the last dosing, animals were anesthetized, the trachea cannulated and bronchoalveolar lavage fluid (BALF) was collected. […] The results are shown in FIG. 3 for activated alveolar macrophages and in FIG. 4 for neutrophils. Data for cell numbers are shown as the mean±SEM. The cigarette smoke model used for this study is reported as a corticosteroid refractory system, ([…]. et al., (2008); J. Pharmacol. Exp.

Compound	pIC50 [1]	pIC50 [2]	pIC50 [3]	pEC50 [4]	MTT 4 hr [5]	MTT 24 hr [5]	effect on ovalbumin-mediated lung function changes [6]	inhibition of neutrophil or macrophage accumulation into airways [7]
COCC(=O)Nc1cc(OCCc2ccc(NC(=O)Nc3cc(C(C)(C)C)nn3-c3ccc(C)cc3)c3ccccc23)ccn1 [Example 43, N-(4-(2-(4-(3-(3-tert-butyl-1-p-tolyl-1H-pyrazol-5-yl)ureido)naphthalen-1-yl)ethoxy)pyridin-2-yl)-2-methoxyacetamide]	> 6.30	> 6.30	> 5.30	> 6.30	− (− <30%)	− (− <30%)	–	–
COCC(=O)Nc1cc(CC(C)Oc2ccc(NC(=O)Nc3cc(C(C)(C)C)nn3-c3ccc(C)cc3)c3ccccc23)ccn1 (centres unmarked) [Example 46, N-(4-(2-(4-(3-(3-tert-Butyl-1-p-tolyl-1H-pyrazol-5-yl)ureido)naphthalen-1-yloxy)propyl)pyridin-2-yl)-2-methoxyacetamide]	> 6.30	> 6.30	< 5.30	> 6.30	− (− <30%)	− (− <30%)	–	–
COCC(=O)Nc1cc(C(C)COc2ccc(NC(=O)Nc3cc(C(C)(C)C)nn3-c3ccc(C)cc3)c3ccccc23)ccn1 (centres unmarked) [Example 47, N-(4-(1-(4-(3-(3-tert-Butyl-1-p-tolyl-1H-pyrazol-5-yl)ureido)naphthalen-1-yloxy)propan-2-yl)pyridin-2-yl)-2-methoxyacetamide]	> 8.00	> 6.30	< 5.30	> 8.00	− (− <30%)	− (− <30%)	–	–
COCC(=O)Nc1cc(C(C)(C)COc2ccc(NC(=O)Nc3cc(C(C)(C)C)nn3-c3ccc(C)cc3)c3ccccc23)ccn1 [Example 48, N-(4-(1-(4-(3-(3-tert-Butyl-1-p-tolyl-1-pyrazol-5-yl)ureido)naphthalen-1-yloxy)-2-methylpropan-2-yl)pyridin-2-yl)-2-methoxyacetamide]	> 6.30	> 6.30	< 5.30	> 6.30	− (− <30%)	− (− <30%)	–	–
COCC(=O)Nc1cc(COc2ccc(NC(=O)Nc3cc(C(C)(C)C)nn3-c3ccc(CO)cc3)c3ccccc23)ccn1 [Example 49, N-(4-((4-(3-(3-tert-Butyl-1-(4-(hydroxymethyl)phenyl)-1H-pyrazol-5-yl)ureido)naphthalen-1-yloxy)methyl)pyridin-2-yl)-2-methoxyacetamide]	> 6.30	> 8.00	> 6.30	> 8.00	− (− <30%)	+ (+ >30% at 10 ug/ml)	–	–
COCC(=O)Nc1nccc(COc2ccc(NC(=O)Nc3cc(C(C)(C)C)nn3-c3ccc(C)cc3)c3ccccc23)n1 [Example 50, N-(4-((4-(3-(3-tert-Butyl-1-p-tolyl-1H-pyrazol-5-yl)ureido)naphthalen-1-yloxy)methyl)pyrimidin-2-yl)-2-methoxyacetamide]	> 6.30	> 8.00	< 5.30	> 8.00	− (− <30%)	− (− <30%)	–	–
CCC(=O)O[C@]1(C(=O)SCF)[C@H](C)C[C@H]2[C@@H]3C[C@H](F)C4=CC(=O)C=C[C@]4(C)[C@@]3(F)[C@@H](O)C[C@@]21C [fluticasone propionate]	–	–	–	–	–	–	inhibited	did not inhibit
